The record followed here is ChEMBL document CHEMBL5506043, “A β-Carboline Derivate PAD4 Inhibitor Reshapes Neutrophil Phenotype and Improves the Tumor Immune Microenvironment against Triple-Negative Breast Cancer” (J Med Chem, 2024).

A short description of series [1]: Toxicity in female BALB/c mouse implanted with mouse orthotopic 4T1-Luc cells assessed as reduction in body weight at 1 to 10 mg/kg, iv administered via tail vein every 2 days for 9 times for 17 days and measured every 2 days. Format: organism-based. The conditions noted are these: in vivo, 408 h, dose 1-10 mg/kg, time 17 day.
A further series relates to 4T1. In words: Antimetastatic activity in starved mouse 4T1 cells assessed as inhibition of cell migration by measuring reduction in number of metastatic cells incubated for 12 hrs by crystal violet staining based transwell assay. Conditions: dose 0.5-2 µM. The format is functional.
Series [2] concerns Mus musculus. In words: Induction of tumor microenvironment in female BALB/c mouse implanted with mouse orthotopic 4T1-Luc cells assessed as downregulation of myeloid derived suppressive G-MDSC cells at 1 to 10 mg/kg, iv administered via tail vein every 2 days for 9 times for 17 days by single-cell mass spectrometry flow cytometry analysis. Format: functional, organism-based. The conditions noted are these: dose 1-10 mg/kg, time 17.0 day. Background: A flow cytometer gives signals particle by particle.

Series [3] can be described thus: AUC (0 to t) in male Sprague-Dawley rat at 3.5 mg/kg, iv by LC-MS/MS analysis. The format is ADME, organism-based. Conditions: in vivo.
The target of series [4] is Protein-arginine deiminase type-4 (Mus musculus) (UniProt Q9Z183). In words: Inhibition of PAD4 in BALB/c mouse bone marrow neutrophils assessed as reduction in neutrophil extracellular traps formation at 2 uM preincubated for 2 hrs followed by calcium ionophore A23187 addition and measured after 2 hrs by Hoechst 33342/Ly6G staining based laser confocal microscopic analysis. Format: tissue-based. The conditions noted are these: time 4.0 hrs.

Series [5] in a line: Cytotoxicity against human MCF-10A cells assessed as inhibition of cell growth incubated for 48 hrs by MTT assay. The format is toxicity, cell-based. (In general: Formazan colour is commonly taken as a measure of viable cells.)
Series [6] has as its system 4T1-Luc. Put plainly: Antitumor activity against mouse orthotopic 4T1-Luc cells implanted in iv dosed female BALB/c mouse assessed as reduction in tumor volume administered via tail vein every 2 days for 9 times for 17 days and measured every 2 days. Format: functional, organism-based. The conditions noted are these: dose 1-10 mg/kg, time 17.0 day.
Series [7] concerns the target Protein-arginine deiminase type-2 (Homo sapiens, UniProt Q9Y2J8). Put plainly: Inhibition of PAD2 (unknown origin) using Nalpha-benzoyl-L-arginine ethyl ester as substrate preincubated for 60 mins followed by substrate addition and measured after 90 mins by colorimetric analysis.
The subject of series [8] is 4T1-Luc. In words: Antitumor activity against mouse orthotopic 4T1-Luc cells implanted in female BALB/c mouse assessed as improvement in animal survival at 10 mg/kg, iv administered via tail vein every 2 days for 9 times for 17 days and measured every 2 days. Format: functional, organism-based. The conditions noted are these: time 17.0 day.
The target in series [9] is Protein-arginine deiminase type-4 (Mus musculus) (UniProt Q9Z183). Put plainly: Inhibition of PAD4 in mouse 4T1 cells assessed as reduction in histone H3 citrullination at 2 uM by immunofluorescence analysis. The format is cell-based.
Series [10] has as its system Mus musculus. In words: Induction of tumor microenvironment in female BALB/c mouse implanted with mouse orthotopic 4T1-Luc cells assessed as increase in proportion of MHC-II-positive tumor-associated neutrophils at 1 to 10 mg/kg, iv administered via tail vein every 2 days for 9 times for 17 days by single-cell mass spectrometry flow cytometry analysis. Conditions: dose 1-10 mg/kg, time 17.0 day. The format is functional, organism-based.

Series [11] in a line: Toxicity in female BALB/c mouse implanted with mouse orthotopic 4T1-Luc cells assessed as effect on serum creatinine level at 1 to 10 mg/kg, iv administered via tail vein every 2 days for 9 times for 17 days. Format: organism-based. Conditions: in vivo, 408 h, dose 1-10 mg/kg, time 17 day.
Series [12] can be described thus: Toxicity in female BALB/c mouse implanted with mouse orthotopic 4T1-Luc cells assessed as morphological changes in liver at 1 to 10 mg/kg, iv administered via tail vein every 2 days for 9 times for 17 days by H and E staining based analysis. The format is organism-based. Conditions: in vivo, 408 h, dose 1-10 mg/kg, time 17 day.
Series [13] has as its system Mus musculus. Put plainly: In vivo inhibition of PAD4 in female BALB/c mouse implanted with mouse orthotopic 4T1-Luc cells assessed as inhibition of histone H3 citrullination in tumor at 10 mg/kg, iv administered via tail vein every 2 days for 9 times for 17 days by immunohistochemical staining based analysis. Conditions: time 17.0 day. The format is functional, organism-based.

Series [14] in a line: Toxicity in female BALB/c mouse implanted with mouse orthotopic 4T1-Luc cells assessed as morphological changes in heart at 1 to 10 mg/kg, iv administered via tail vein every 2 days for 9 times for 17 days by H and E staining based analysis. The format is organism-based. The conditions noted are these: in vivo, 408 h, dose 1-10 mg/kg, time 17 day.
Series [15] is described as follows: Toxicity in female BALB/c mouse implanted with mouse orthotopic 4T1-Luc cells assessed as morphological changes in spleen at 1 to 10 mg/kg, iv administered via tail vein every 2 days for 9 times for 17 days by H and E staining based analysis. The format is organism-based. The conditions noted are these: in vivo, 408 h, dose 1-10 mg/kg, time 17 day.
In series [16] the test system is Mus musculus. In words: Induction of tumor microenvironment in female BALB/c mouse implanted with mouse orthotopic 4T1-Luc cells assessed as decrease in proportion of PD-L1-positive/MHC-II-positive tumor-associated neutrophils at 1 to 10 mg/kg, iv administered via tail vein every 2 days for 9 times for 17 days by single-cell mass spectrometry flow cytometry analysis. The format is functional, organism-based. The conditions noted are these: dose 1-10 mg/kg, time 17.0 day.

Series [17] deals with 4T1-Luc. In words: Antimetastatic activity against mouse orthotopic 4T1-Luc cells implanted in iv dosed female BALB/c mouse assessed as reduction in lung metastasis by measuring reduction in metastatic lung nodules administered via tail vein every 2 days for 9 times for 17 days. The format is functional, organism-based. The conditions noted are these: dose 1-10 mg/kg, time 17.0 day.

Calls of active or inactive are those of the source. The calls are words filed in the database; no cut-off is given here.

Protein-arginine deiminase type-4 (Mus musculus), sequence (Q9Z183 whole entry): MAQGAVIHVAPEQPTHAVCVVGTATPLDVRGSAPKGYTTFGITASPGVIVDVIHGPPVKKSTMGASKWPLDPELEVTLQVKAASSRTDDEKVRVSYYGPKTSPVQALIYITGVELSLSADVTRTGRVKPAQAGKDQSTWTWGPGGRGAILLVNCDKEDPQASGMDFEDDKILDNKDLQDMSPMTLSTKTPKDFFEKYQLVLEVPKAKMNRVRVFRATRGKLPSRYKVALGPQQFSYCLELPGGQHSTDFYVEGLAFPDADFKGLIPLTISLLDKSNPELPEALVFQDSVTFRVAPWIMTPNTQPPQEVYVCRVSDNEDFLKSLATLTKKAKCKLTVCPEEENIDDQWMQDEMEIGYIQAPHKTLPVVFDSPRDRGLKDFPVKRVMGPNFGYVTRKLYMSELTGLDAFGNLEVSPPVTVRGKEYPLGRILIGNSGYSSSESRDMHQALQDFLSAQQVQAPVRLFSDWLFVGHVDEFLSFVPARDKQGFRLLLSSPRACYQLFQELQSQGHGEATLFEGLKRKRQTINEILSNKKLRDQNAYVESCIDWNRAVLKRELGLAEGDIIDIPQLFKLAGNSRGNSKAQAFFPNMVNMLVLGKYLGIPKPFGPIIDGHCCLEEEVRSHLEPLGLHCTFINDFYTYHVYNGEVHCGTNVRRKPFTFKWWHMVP
Protein-arginine deiminase type-2, sequence (Q9Y2J8 whole entry): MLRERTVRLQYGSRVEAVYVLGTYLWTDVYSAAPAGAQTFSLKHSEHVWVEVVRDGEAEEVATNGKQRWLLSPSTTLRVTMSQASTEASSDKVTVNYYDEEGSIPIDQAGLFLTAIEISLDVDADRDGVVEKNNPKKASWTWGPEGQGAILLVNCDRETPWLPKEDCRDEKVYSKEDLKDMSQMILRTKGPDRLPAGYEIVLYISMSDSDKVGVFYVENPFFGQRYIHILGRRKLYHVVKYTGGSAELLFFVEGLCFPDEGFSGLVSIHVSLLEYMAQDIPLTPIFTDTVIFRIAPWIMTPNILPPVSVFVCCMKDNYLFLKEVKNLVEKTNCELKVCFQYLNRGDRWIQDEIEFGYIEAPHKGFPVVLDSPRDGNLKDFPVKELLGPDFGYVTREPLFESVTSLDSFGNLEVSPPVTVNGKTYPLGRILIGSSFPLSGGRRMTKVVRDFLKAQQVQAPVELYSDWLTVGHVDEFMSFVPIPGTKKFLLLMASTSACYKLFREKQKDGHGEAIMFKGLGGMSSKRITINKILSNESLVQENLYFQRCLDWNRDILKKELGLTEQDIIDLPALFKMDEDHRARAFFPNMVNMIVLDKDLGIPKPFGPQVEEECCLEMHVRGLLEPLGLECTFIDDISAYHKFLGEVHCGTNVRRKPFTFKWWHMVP

For the compound `N=C(CCl)NCCC[C@H](NC(=O)c1cc2c([nH]c3ccccc32)c(-c2ccccc2)n1)C(=O)NCc1ccccc1`, the Activity result in [1] was “Non-Toxic”; in the series on 4T1, “Dose-Dependent Effect”; in the series on 4T1-Luc [6], “Dose-Dependent Effect”; in [11] it was “Non-Toxic”; in [12] it was “Non-Toxic”; in series [14], “Non-Toxic”. The Activity entry in [15] was “Non-Toxic”; in the series with 4T1-Luc [17] it was “Dose-Dependent Effect”. Further, the result with Mus musculus [2], with 4T1-Luc [8], in the series on Mus musculus [10] and with Mus musculus [16] was Active. The AUC(0-t) – broadly, the area under the concentration-time curve up to a stated or last time point – in series [3] was 9.53 ng·h/mL. Further, the inhibition entry (in series [4]; in series [9]; in the series on Mus musculus [13]) was “Active” each time. Besides, the IC50 (usually the point on the concentration scale where inhibition reaches its midpoint) at 48 h in series [5] is 8.39 µM. The midpoint of inhibition in [7], the IC50, lay at 2.97 µM.
